Measured values: patent US5550165A, “Pharmaceutical compositions for the treatment of hereditary tyosinemia type I” (Zeneca Limited, priority 1991, dated 1996)

Assays:
[1] = system: tyrosinaemia (type I) patients; test: Therapeutic evaluation in patients with tyrosinaemia (type I); type: in vivo, human
[2] = 90 day oral toxicity in rhesus monkeys; type: in vivo; settings: over 90 days, daily oral dose of 10 mg/kg
[3] = system: tyrosinaemia (type I) patients; test: Therapeutic evaluation in patients with tyrosinaemia (type I); type: in vivo, human; remark: listed apart in the source
Experimental: Patients with an advanced form of the disease will be given the test composition (generally about 0.2-2.0 mg of active ingredient per kg body weight) orally. A blood sample will be taken daily during the first week and then less frequently at the discretion of the physician. Urine specimens will normally be collected daily. The indicators outlined below will be used to monitor the response to the test composition. The treatment will be maintained for up to 12 months if a clinically and biochemically satisfactory response is observed. If not, the dose of active ingredient administered will be increased stepwise to a maximum of about 2 mg/kg per day. Should any adverse indication occur, based on the biochemical monitoring or clinical assessment dosing will be stopped immediately.
The patients will be placed on a tyrosine-restricted diet with the aim of keeping plasma tyrosine concentrations below 500 μmol/L. A large increase in the tyrosine concentration in plasma is not expected to occur, but levels will be monitored throughout the dosing. Changes in the excretion of the biochemical markers mentioned below, such as succinylacetoacetate, succinylacetone and 5-aminolevulinic acid will be monitored, as will the effect on porphobilinogen synthase and α-fetoprotein concentration.
Tyrosine and Methionine--these amino acids will be determined in plasma by a standard technique using an amino-acid analyser.
Succinylacetoacetate and Succinylacetone--these compounds will be determined in urine by gas chromatography--mass spectrometry. Succinylacetone in plasma will be determined by measuring the inhibition of porphobilinogen synthase using a conventional assay.
5-Aminolevulinic acid--this will be determined in urine by a conventional colorimetric assay.
α-Fetoprotein--this will be determined in plasma by a conventional radioimmunoassay technique.
Porphobilinogen synthase--this will be determined in erythrocytes using a conventional colorimetric assay.
A patient was admitted to hospital after problems with slight nose bleedings and the parents noting swelling of the abdomen. Metabolic screening in hospital diagnosed tyrosinaemia (type I) based on the abnormal excretion of succinylacetone, succinylacetoacetate and 5-aminolevulinic acid in urine and a low activity of porphobilinogen synthase in erythrocytes. […] This was increased to 0.16 mg/kg b.w. after four days, and then to about 0.4 mg/kg by the end of the first 2 months, the dose being divided into two portions for morning and afternoon administration. The dose was then increased to about 0.6 mg/kg after a further 5 months.

[4] = Patient 2, capsule formulation 0.2 mg/kg b.w.
[5] = Patient 3, capsule formulation 0.2 mg/kg b.w., after 5 months 0.6 mg/kg b.w.
[6] = Patient 4, capsule formulation 0.2 mg/kg b.w., after 5 months 0.6 mg/kg b.w.
[7] = Patient 1, capsule formulation, 0.08 increased to about 0.6 mg/kg b.w.

For `O=C1CCCC(=O)C1C(=O)c1ccc(C(F)(F)F)cc1[N+](=O)[O-]` [the Compound, 2-(2-nitro-4-trifluoromethylbenzoyl)-1,3-cyclohexanedione], the “serum α-fetoprotein concentration after dosing” value ([1]; Patient 1, decreased from 7,200 μg/L during dosing) was 96 µg/L, the “excretion of succinylacetone and succinylacetoacetate after treatment” value ([1]; Patient 1, urine, immediate decrease from 50 mmol/mol of creatinine) was < 1 mmol/mol of creatinine and the “methionine concentration in plasma” value ([1]; Patient 1, very high initially, after start of treatment) was “dropped to normal levels very rapidly”. For the same molecule, the “clinical position of the patient” value ([1]; Patient 2, 0.2 mg/kg b.w.) was “improved”, the “serum levels of α-fetoprotein after treatment” value (from here on “serum levels of α-fetoprotein”) ([1]; Patient 2, 0.2 mg/kg b.w., decreased from ca. 900 μg/L) was 40 µg/L and the “serum levels of succinylacetone” value [1, 4] was “decreased”. The “urinary levels of 5-aminolevulinic acid” value [1, 4] was “decreased”, the “urinary levels of succinylacetone” value [1, 4] was “decreased” and the porphobilinogen synthase activity ([1]; Patient 2, capsule formulation 0.2 mg/kg b.w., initial 3 month dosing period) was “increased to normal levels”. The “clinical position of the patient” value ([1]; Patient 3, 0.2 then 0.6 mg/kg b.w.) was “improved”, the “serum levels of α-fetoprotein” value ([1]; Patient 3, 0.2 then 0.6 mg/kg b.w., fell from ca. 900 μg/L) was 11 µg/L and the “plasma levels of succinylacetone” value [1, 5] was “substantially lowered”. The “urinary levels of 5-aminolevulinic acid” value [1, 5] was “substantially lowered”, the “clinical position of the patient” value ([1]; Patient 4, 0.2 then 0.6 mg/kg b.w.) was “improved” and the “serum levels of α-fetoprotein” value ([1]; Patient 4, 0.2 then 0.6 mg/kg b.w., fell from ca. 2000 μg/L) was 48 µg/L. The “plasma levels of succinylacetone” value [1, 6] was “substantially lowered”, the “urinary levels of 5-aminolevulinic acid” value [1, 6] was “substantially lowered” and the “urinary levels of succinylacetone” value [1, 6] was “substantially lowered”. The “toxic or other adverse effects” value [2] was “no significant toxic or other adverse effects”, the “excretion of 5-aminolevulinic acid” value [3, 7] was “concomitant decrease” and the “porphobilinogen synthase activity in erythrocytes” value [3, 7] was “immediate increase”. For the same molecule, the “overall clinical condition of the patient” value ([3]; Patient 1, during the treatment period) was “improved markedly”, the plasma succinylacetone levels ([3]; Patient 1, immediate decrease, after about 30 days) was “to the limit of detection” and the “decrease of concentration of amino acids in urine” value ([3]; Patient 1, very high before treatment, after treatment) was 5-10 times. The “urinary levels of succinylacetone” value [3, 5] was “substantially lowered”.
